# Results published in patent US20220288404A1, “METHODS FOR APPLYING TUMOR TREATING FIELDS IN COMBINATION WITH CANCER TREATING THERAPEUTICS” (THE BOARD OF REGENTS OF THE UNIVERSITY OF TEXAS SYSTEM, priority 2021, published 2022).
# Tests used:
# Format in all cases: cell-based
# [1] = tested on: H1299 cells; experiment: Clonogenic cell survival assay, H1299 cells; conditions: for CI TTFields + ETOP / CI Irino + 2Gy / CI TTFields + Irino / CI TTFields + Irino + 2Gy: CI>1 synergistic
# Protocol: (§1) Using certain embodiments disclosed herein, TTFields in combination with various inhibitors and/or radiation treatment (IR) were applied to NSCLC cells or pancreatic cancer cells. For example, a predetermined inhibitor at a predetermined concentration was delivered to NSCLC cells or pancreatic cancer cells, and the cells were immediately exposed to TTFields (e.g., 100-250 kHz and 1-20 V/cm v/cm) for about 24, […], or 72 hours. The predetermined concentration was a cell line specific concentration for optimal target cell killing. Then, the cells were irradiated (at a dose of 2Gy) for less than a minute (e.g., 3.25 Gy/min) and immediately plated for survival.
# (§2) FIGS. 4 and 5 depict example effects of TTFields, AZD6738, radiation, and a combination thereof on non-small cell lung cancer cells (NSCLC) and pancreatic cancer cell, respectively. In particular, FIGS. 4 and 5 show TTFields exposure synergistically increases the effects of ATR inhibitor AZD6738 on NSLCL cells (FIG. 4) survival and pancreatic cancer cell (FIG. 5) survival. TTFields were used together with ATR inhibitor AZD6738 and radiation (IR). A synergistic effect was observed when AZD6738 and IR were combined with TTFields using the highest single agent (HSA) approach. The following formulas were used for calculating CI: SF=Survival Fraction; CI (TTFields)+(2Gy)=(SF2Gy×SFTTFields)/SF2Gy+TTFields; CI(TTFields)+(AZD)=(SFAZD×SFTTFields)/SFAZD+TTFields; CI (2Gy)+(AZD)=(SF2Gy×SFAZD)/SF2Gy+AZD; and CI (TTFields)+(2Gy)+(AZD)=(SF2Gy×SFAZD×SFTTFields)/SFTTFields+2Gy+AZD.
# (§3) The following formulas are used for calculating the combination Index: SF=Survival Fraction; CI (TTFields)+(2Gy)=(SF2Gy×SFTTFields)/SF2Gy+TTFields; CI(TTFields)+(Irino)=(SFIrino×SFTTFields)/SFIrino+TTFields; CI (2Gy)+(Irino)=(S2Gy×SFIrino)SF2Gy+Irino; and CI (TTFields)+(2Gy)+(Irino)=(SF2Gy×SFIrino×SFTTFields)/SFTTFields+2Gy+Irino.
# [2] = tested on: H157 cells; experiment: Clonogenic cell survival assay, H157 cells; conditions: for CI TTFields + ETOP / CI Irino + 2Gy / CI TTFields + Irino / CI TTFields + Irino + 2Gy: CI>1 synergistic
# Protocol: as §1, §2, §3
# [3] = tested on: NSCLC; experiment: Cell survival of NSCLC cells with CP/ETP with/without TTFields (FIG. 6); conditions: HSA approach
# Protocol: as §1
# FIG. 6 depicts example effects of TTFields, Cisplatin, Etoposide, and a combination thereof on NSCLC. […] CP and ETP were tested alone or in combination and with/without TTFields.
# [4] = tested on: H157 cells; experiment: Clonogenic cell survival assay, H157 cells; conditions: 48 h, CI>1 synergistic
# [5] = tested on: Panc-1 cells; experiment: Clonogenic cell survival assay, Panc-1 cells; conditions: for CI Irino + 2Gy / CI TTFields + Irino / CI TTFields + Irino + 2Gy / CI 2Gy + Olap / CI TTFields + 2Gy + Olap / CI TTFields + Olap: CI>1 synergistic; for surviving fraction: agent as shown in figure
# Protocol: as §1, with “killing.” for “killing. Then, the cells were irradiated (at a dose of 2Gy) for less than a minute (e.g., 3.25 Gy/min) and immediately plated for survival.”
# (§4) Olaparib was given concomitant with TTFields. Radiation was given 24, 48 or 72 h after the initiation of TTFields and specific agents. […] Values greater than 1.0 are considered as synergistic, that is, greater than the sum of the individual responses. The following formulas were used for calculating CI: SF=Survival Fraction; CI (TTFields)+(2Gy)=(SF2Gy×SFTTFields)/SF2Gy+TTFields; CI(TTFields)+(Olap)=(SFOlap×SFTTFields)/SFOlap+TTFields; CI (2Gy)+(Olap)=(SF2Gy×SFOlap)/SF2Gy+Olap; and CI (TTFields)+(2Gy)+(Olap)=(SF2Gy×SFOlap×SFTTFields)/SFTTFields+2Gy+Olap. […] Based upon the Highest Single Agent […] approach. The calculation for the Combination Index can be found below.
# as §2, §3
# [6] = tested on: H1299 cells; experiment: Clonogenic cell survival assay, H1299 cells; conditions: 48 h, CI>1 synergistic
# [7] = tested on: 04.03 cells; experiment: Clonogenic cell survival assay, 04.03 cells; conditions: for CI 2Gy + Olap / CI TTFields + 2Gy + Olap / CI TTFields + Olap: CI>1 synergistic
# Protocol: as §1, with “killing.” for “killing. Then, the cells were irradiated (at a dose of 2Gy) for less than a minute (e.g., 3.25 Gy/min) and immediately plated for survival.”
# as §4, §2
smiles,measurement,setting,value
"COc1cc([C@@H]2c3cc4c(cc3[C@@H](O[C@@H]3O[C@@H]5CO[C@@H](C)O[C@H]5[C@H](O)[C@H]3O)[C@H]3COC(=O)[C@H]23)OCO4)cc(OC)c1O [ETOP, Etoposide]",CI TTFields + ETOP,[1]; 24 h,1.387
same,CI TTFields + ETOP,[1]; 48 h,1.174
same,CI TTFields + ETOP,[1]; 72 h,1.140
same,CI TTFields + ETOP,[2]; 24 h,0.842
same,CI TTFields + ETOP,[2]; 72 h,1.021
same,cell killing capacity in combination with TTFields,[3],synergistically enhanced
same,CI TTFields + ETOP,[4],0.995
"CCc1c2c(nc3ccc(OC(=O)N4CCC(N5CCCCC5)CC4)cc13)-c1cc3c(c(=O)n1C2)COC(=O)[C@]3(O)CC [Irino, Irinotecan]","effect of combinations of TTFields, agent and/or IR on cell survival",[5],synergistic effects
same,CI Irino + 2Gy,[5]; 24 h,1.022
same,CI TTFields + Irino,[5]; 24 h,1.082
same,CI TTFields + Irino + 2Gy,[5]; 24 h,2.360
same,CI Irino + 2Gy,[5]; 48 h,1.009
same,CI TTFields + Irino,[5]; 48 h,0.974
same,CI TTFields + Irino + 2Gy,[5]; 48 h,2.335
same,CI Irino + 2Gy,[5]; 72 h,1.132
same,CI TTFields + Irino,[5]; 72 h,1.030
same,CI TTFields + Irino + 2Gy,[5]; 72 h,4.454
same,surviving fraction,[5],significantly reduced
same,"effect of combinations of TTFields, agent and/or IR on cell survival",[1],synergistic effects
same,CI Irino + 2Gy,[1]; 24 h,1.244
same,CI TTFields + Irino,[1]; 24 h,1.388
same,CI TTFields + Irino + 2Gy,[1]; 24 h,2.365
same,CI Irino + 2Gy,[1]; 48 h,1.012
same,CI TTFields + Irino + 2Gy,[1]; 48 h,2.130
same,CI Irino + 2Gy,[1]; 72 h,1.027
same,CI TTFields + Irino,[1]; 72 h,2.081
same,CI TTFields + Irino + 2Gy,[1]; 72 h,2.051
same,surviving fraction,[1]; agent as shown in figure,significantly reduced
same,"effect of combinations of TTFields, agent and/or IR on cell survival",[2],synergistic effects
same,CI Irino + 2Gy,[2]; 24 h,1.064
same,CI TTFields + Irino,[2]; 24 h,1.483
same,CI TTFields + Irino + 2Gy,[2]; 24 h,1.763
same,CI Irino + 2Gy,[2]; 48 h,1.244
same,CI TTFields + Irino,[2]; 48 h,1.174
same,CI TTFields + Irino + 2Gy,[2]; 48 h,1.463
same,CI Irino + 2Gy,[2]; 72 h,1.275
same,CI TTFields + Irino,[2]; 72 h,1.136
same,CI TTFields + Irino + 2Gy,[2]; 72 h,2.501
same,surviving fraction,[2]; agent as shown in figure,significantly reduced
same,CI TTFields + Irino,[6],1.821
"O=C(c1cc(Cc2n[nH]c(=O)c3ccccc23)ccc1F)N1CCN(C(=O)C2CC2)CC1 [Olap, Olaparib]","effect of combinations of TTFields, agent and/or IR on cell survival",[5],synergistic effects
same,CI 2Gy + Olap,[5]; 24 h,0.890
same,CI TTFields + 2Gy + Olap,[5]; 24 h,1.589
same,CI TTFields + Olap,[5]; 24 h,1.035
same,CI 2Gy + Olap,[5]; 48 h,0.975
same,CI TTFields + 2Gy + Olap,[5]; 48 h,1.817
same,CI TTFields + Olap,[5]; 48 h,1.209
same,CI 2Gy + Olap,[5]; 72 h,1.030
same,CI TTFields + 2Gy + Olap,[5]; 72 h,2.028
same,CI TTFields + Olap,[5]; 72 h,1.215
same,surviving fraction,[5],significantly reduced
same,"effect of combinations of TTFields, agent and/or IR on cell survival",[7],synergistic effects
same,CI 2Gy + Olap,[7]; 24 h,1.550
same,CI TTFields + 2Gy + Olap,[7]; 24 h,2.863
same,CI TTFields + Olap,[7]; 24 h,1.101
same,CI 2Gy + Olap,[7]; 48 h,1.582
same,CI TTFields + 2Gy + Olap,[7]; 48 h,2.066
same,CI TTFields + Olap,[7]; 48 h,0.973
same,CI 2Gy + Olap,[7]; 72 h,1.462
same,CI TTFields + 2Gy + Olap,[7]; 72 h,3.818
same,CI TTFields + Olap,[7]; 72 h,1.042
same,surviving fraction,[7]; agent as shown in figure,significantly reduced
